Test results as given in patent US10231452B2, “Thiopicolinamide compounds with fungicidal activity” (Dow AgroSciences LLC, priority 2016, dated 2019).
Like-named read-outs stand apart in the source and are kept apart here.

Legend:
[1] = system: Puccinia triticina; experiment: Fungicidal activity: wheat brown rust (PUCCRT), disease control on wheat seedlings; type: in vivo; conditions: wheat (Yuma); for pest or weed control at 100 ppm: high volume application; for pest or weed control at 121.5 g/ha: low volume application, 121.5 g/H
Protocol: Technical grades of materials were dissolved in acetone, which were then mixed with nine volumes of water (H2O) containing 110 ppm Triton X-100. The fungicide solutions were applied onto wheat seedlings using an automated booth sprayer to run-off. All sprayed plants were allowed to air dry prior to further handling. All fungicides were evaluated using the aforementioned method for their activity vs. all target diseases, unless stated otherwise. Wheat leaf blotch and brown rust activity were also evaluated using track spray applications, in which case the fungicides were formulated as EC formulations, containing 0.1% Trycol 5941 in the spray solutions.
Evaluation of Fungicidal Activity: Wheat Brown Rust (Puccinia Triticina; Synonym: Puccinia recondita f. Sp. Tritici; Bayer Code PUCCRT)
Wheat plants (variety Yuma) were grown from seed in a greenhouse in 50% mineral soil/50% soil-less Metro mix until the first leaf was fully emerged, with 7-10 seedlings per pot. These plants were inoculated with an aqueous spore suspension of Puccinia triticina either prior to or after fungicide treatments. After inoculation the plants were kept in a dark dew room at 22° C. with 100% relative humidity overnight to permit spores to germinate and infect the leaf. The plants were then transferred to a greenhouse set at 24° C. for disease to develop. Fungicide formulation, application and disease assessment followed the procedures as described in the Example A. The results of the evaluation are shown below in Table 4.

[2] = system: Zymoseptoria tritici; experiment: Fungicidal activity: leaf blotch of wheat (SEPTTR), disease control on wheat seedlings; type: in vivo; conditions: wheat (Yuma); for pest or weed control at 100 ppm: high volume application; for pest or weed control at 121.5 g/ha: low volume application, 121.5 g/H
Protocol: Evaluation of Fungicidal Activity: Leaf Blotch of Wheat (Zymoseptoria Tritici; Bayer Code […]) Technical grades of materials were dissolved in acetone, which were then mixed with nine volumes of water (H2O) containing 110 ppm Triton X-100. The fungicide solutions were applied onto wheat seedlings using an automated booth sprayer to run-off. All sprayed plants were allowed to air dry prior to further handling. All fungicides were evaluated using the aforementioned method for their activity vs. all target diseases, unless stated otherwise. Wheat leaf blotch and brown rust activity were also evaluated using track spray applications, in which case the fungicides were formulated as EC formulations, containing 0.1% Trycol 5941 in the spray solutions. Wheat plants (variety Yuma) were grown from seed in a greenhouse in 50% mineral soil/50% soil-less Metro mix until the first leaf was fully emerged, with 7-10 seedlings per pot. These plants were inoculated with an aqueous spore suspension of Zymoseptoria tritici either prior to or after fungicide treatments. After inoculation the plants were kept in 100% relative humidity (one day in a dark dew chamber followed by two to three days in a lighted dew chamber at 20° C.) to permit spores to germinate and infect the leaf. The plants were then transferred to a greenhouse set at 20° C. for disease to develop. When disease symptoms were fully expressed on the 1st leaves of untreated plants, infection levels were assessed on a scale of 0 to 100 percent disease severity. Percent disease control was calculated using the ratio of disease severity on treated plants relative to untreated plants.

[3] = system: Phakopsora pachyrhizi; experiment: Fungicidal activity: Asian soybean rust (PHAKPA), disease control on soybean seedlings; type: in vivo; conditions: soybean (Williams 82)
Protocol: Evaluation of Fungicidal Activity: Asian Soybean Rust (Phakopsora pachyrhizi; Bayer Code PHAKPA)
Technical grades of materials were dissolved in acetone, which were then mixed with nine volumes of H2O containing 0.011% Tween 20. The fungicide solutions were applied onto soybean seedlings using an automated booth sprayer to run-off. All sprayed plants were allowed to air dry prior to further handling.
Soybean plants (variety Williams 82) were grown in soil-less Metro mix, with one plant per pot. Two weeks old seedlings were used for testing. Plants were inoculated either 3 days prior to or 1 day after fungicide treatments. Plants were incubated for 24 h in a dark dew room at 22° C. and 100% relative humidity then transferred to a growth room at 23° C. for disease to develop. Disease severity was assessed on the sprayed leaves.

[4] = 24 h, 1 day protectant, read-out: PUCCRT 1DP disease control, HV activity at 100 ppm
[5] = 72 h, 3 day curative, read-out: PUCCRT 3DC disease control, HV activity at 100 ppm
[6] = 24 h, 1 day protectant, read-out: SEPTTR 1DP disease control, HV activity at 100 ppm
[7] = 72 h, 3 day curative, read-out: SEPTTR 3DC disease control, HV activity at 100 ppm
[8] = 24 h, 1 day protectant, read-out: PUCCRT 1DP disease control, LV activity at 121.5 g/H
[9] = 72 h, 3 day curative, read-out: PUCCRT 3DC disease control, LV activity at 121.5 g/H
[10] = 24 h, 1 day protectant, read-out: SEPTTR 1DP disease control, LV activity at 121.5 g/H
[11] = 72 h, 3 day curative, read-out: SEPTTR 3DC disease control, LV activity at 121.5 g/H

Row | Compound | pest or weed control at 100 ppm [1, 4] | pest or weed control at 100 ppm [1, 5] | melting point | pest or weed control at 100 ppm [2, 6] | pest or weed control at 100 ppm [2, 7] | pest or weed control at 121.5 g/ha [1, 8] | pest or weed control at 121.5 g/ha [1, 9] | pest or weed control at 121.5 g/ha [2, 10] | pest or weed control at 121.5 g/ha [2, 11] | pest or weed control at 25 ppm ([3]; 24 h, 1 day protectant, read-out: PHAKPA 1DP disease control at 25 ppm) | pest or weed control at 25 ppm ([3]; 72 h, 3 day curative, read-out: PHAKPA 3DC disease control at 25 ppm)
1 | COc1cc(C)ccc1C(c1ccc(F)cc1OC)[C@H](C)OC(=O)[C@H](C)NC(=S)c1nccc(OC)c1O (some centres unmarked) [Compound 29] | > 80% | > 80% | 60 to 72 °C | > 80% | > 80% | – | – | – | – | – | –
2 | COc1ccnc(C(=S)N[C@@H](C)C(=O)O[C@@H](C)[C@H](Oc2ccc(C)cc2)C2CCCC2)c1O [Compound 38] | > 80% | > 80% | 49 to 57 °C | > 80% | ≤ 80% | – | – | – | – | – | –
3 | CCCCC[C@@H](OC(=O)[C@H](C)NC(=S)c1nccc(OC)c1OC(C)=O)[C@H](C)Oc1ccccc1 [Compound 41] | – | – | – | – | – | > 80% | > 80% | > 80% | > 80% | – | –
4 | COc1cc(C)ccc1C(c1ccc(F)cc1OC)[C@H](C)OC(=O)[C@H](C)NC(=S)c1nccc(OC)c1OC(C)=O (some centres unmarked) [Compound 65] | – | – | – | – | – | > 80% | > 80% | > 80% | > 80% | > 80% | ≤ 80%
